Experimental data as given in patent US20070014739A1, “Compositions and methods for controlling biofilms and bacterial infections” (priority 2005, published 2007).

How the values were obtained:
P. aeruginosa [1] = assay: Biofilm inhibition, comparison of scaffold modifications; assay type: cell-based; conditions: effect of modifying corosolic acid at C-19, or at C-3 and C-20
[2] = system: E. coli laboratory strain JM109; assay: Inhibition of biofilm formation, crystal violet, 96 well plates; assay type: cell-based; conditions: Escherichia coli, JM 109, compared to the controls, read-out: inhibited biofilm formation of the JM109 strain
Protocol: Biofilm inhibition experiments were conducted using an assay adapted from the reported protocol described in Pratt and Kolter, 1998, Molecular Microbiology, 30: 285-293; Li et al., 2001, J. Bacteriol., 183: 897-908. E. coli clinical strain UT189 was grown in LB in 96 well plates at room temperature for one or two days without shaking. E. coli laboratory strain JM109 was grown in LB plus 0.2% glucose in 96 well plates at room temperature for one day without shaking. To quantify the biofilm mass, the suspension culture was poured out and the biofilm was washed three times with water. The biofilm was stained with 0.1% crystal violet for 20 minutes. The plates were then washed three times with water. OD reading at 540 nm was measured to quantify the biofilm mass at the bottom of the wells. Then 95% ethanol was added to dissolve the dye at the bottom and on the wall and the OD reading at 540 nm was measured to quantify the total biofilm mass. To study the overall effect of the compounds (3.6 mg/mL in 100% ethanol as stock solution), it was added with the inoculation and a time course of biofilm mass was measured. Appropriate amounts of 100% ethanol were added to each sample to eliminate the effect of solvent. Each condition had 3-4 replicates on each plate and was performed over multiple days.

[3] = system: P. aeruginosa strain PAO1; assay: Rotating disk reactor (RDR) biofilm test with and without tobramycin, culturable bacteria; assay type: cell-based, Pseudomonas aeruginosa; conditions: test compound 100 μg/ml 24 h, average of three days
Protocol: Biofilm formation of P. aeruginosa was evaluated using a standardized biofilm method with a rotating disk reactor (RDR). This method provides a model resembling the formation of biofilms in cystic fibrosis patients. The rotating disk reactor consists of a one-liter glass beaker fitted with a drain spout. The bottom of the vessel contains a magnetically driven rotor with six 1.27 cm diameter coupons constructed from polystyrene. The rotor consists of a star-head magnetic stir bar upon which a disk was affixed to hold the coupons. The vessel with the stir bar was placed on a stir plate and rotated to provide fluid shear. A nutrient solution (AB Trace Medium with 0.3 mM glucose, see Table 3 below for composition) was added through a stopper in the top of the reactor at a flow rate of 5 ml/min. The reactor volume was approximately 180 ml and varied slightly between reactors depending on the placement of the drain spout and the rotational speed of the rotor. At a volume of 180 ml, the residence time of the reactors was 36 minutes. The reactors were operated at room temperature (c.a. 26° C.).
For each test, two RDRs were operated in parallel with one receiving test compound and the other serving as an untreated control. The RDRs were sterilized by autoclave, then filled with sterile medium and inoculated with P. aeruginosa strain PAO1. The reactors were then incubated at room temperature in batch mode (no medium flow) for a period of 24 hours, after which the flow was initiated for a further 24 hour incubation. Test compounds were dissolved in 10 ml ethanol to achieve a concentration of 1.8 mg/ml. After the 48 hours of biofilm development described above, the 10 ml of ethanol containing the test compounds were added to the reactor to achieve a final concentration of approximately 50, 100, or 200 μg/ml. Control reactors received 10 ml of ethanol. The reactors were then incubated for an additional 24 hours in batch (no flow) mode. After this incubation period, the six coupons were removed from each reactor and placed in 12-well polystyrene tissue culture plates with wells containing either 2 ml of a 100 μg/ml tobramycin solution or 2 ml of phosphate-buffered saline (PBS). These plates were incubated at room temperature for two hours. The coupons were then rinsed by three transfers to plates containing 2 ml of fresh PBS. For each two RDR reactors run in parallel, four sets of three coupons were obtained: one set with no test compound treatment and no tobramycin treatment, one set with no test compound treatment and tobramycin treatment, one set treated with a test compound treatment and no tobramycin treatment, and one set treated with a test compound treatment and tobramycin. After rinsing, one coupon of each set of three was stained with a LIVE/DEAD® BacLight™ Bacterial Viability Kit (Molecular Probes, Eugene Oreg.) and imaged using epifluorescent microscopy. The remaining two coupons were placed in 10 ml of PBS and sonicated for five minutes to remove and disperse biofilm cells. The resulting bacterial suspensions were then serially diluted in PBS and plated on tryptic soy agar plates for enumeration of culturable bacteria. The plates were incubated for 24 hours at 37° C. before colony forming units (CFU) were determined.
The results are averages from experiments performed on three separate days for each test compound. The values reported are as loglo CFU.

[4] = Bladder concentrations in rats (pharmacokinetic study); conditions: rat, in vivo; rats, 50 mg/kg oral single bolus in 50% Labrasol, at 24 hours; read-out: Concentrations in the bladder
Protocol: Pharmacokinetic studies of asiatic acid and madecassic acid in rats were performed separately. Asiatic acid and madecassic acid were evaluated at 50 mg/kg (oral). Two animals were assigned to the each group. Prior to dosing, a baseline blood sample was taken from each animal. At time zero for asiatic acid and madecassic acid, a single bolus dose in 50% Labrasol (Gattefosse) was given to each animal. Bladders were analyzed at 24 hours. Concentrations of both asiatic acid and madecassic acid in the bladder were approximately 30 μg/g at 24 hours.

S. mutans = conditions: U.S. Pat. No. 4,606,911; cited from earlier work
S. salivaris = conditions: U.S. Pat. No. 4,606,911; cited from earlier work
S. aureus = conditions: U.S. Pat. No. 4,606,911; cited from earlier work
E. coli = conditions: U.S. Pat. No. 4,606,911; cited from earlier work
P. aeruginosa [5] = conditions: U.S. Pat. No. 4,606,911; cited from earlier work
[6] = system: E. coli clinical strain UT189 against bladder epithelial cells; assay: Binding to and invasion of bladder epithelial cells by E. coli; assay type: cell-based; conditions: 40 μg/ml, 60 minutes; separate experiments (n=4 to 7)
Protocol: The effect of test compounds on bacterial invasion of E. coli clinical strain UT189 was studied as described in Elsinghorst, et al. 1994, Methods Enzymol, 236:405-420; and Martinez et al., 2000, EMBO J., 19:2803-2812. Epithelial bladder cells were grown in plates. Asiatic acid, corosolic acid, or ursolic acid were added at concentrations of 10 μg/ml, 20 μg/ml, or 40 μg/ml to bacteria and epithelial cells for approximately 5, 15, 30, or 60 minutes with approximately 10^7 CFU of E. coli. Binding was assessed at time zero and invasion was assessed at approximately 5, 15, 30, or 60 minutes from completing the mixture of compound, bacteria, and epithelial cells. As a control ethanol was added to cells to a final concentration of 0.1%. The effect of bacterial viability and bacterial adherence during the infection period was evaluated according to the methods described in Martinez et al., 2000, EMBO J., 19:2803-2812.

E. coli UT189[pCOMGFP] = assay: Biofilm pods (IBCs) in bladders of infected mice, intravesical compound, confocal microscopy; assay type: in vivo, Escherichia coli; conditions: experiment 1: C3H/HeN mice, 40 μg/ml intravesical with 30 min pre-incubation, 10^8 CFU, five hours; vs controls
Protocol: The procedures in this example has been previously reported by Justice, S. et al. Differentiation and development pathways of uropathogenic Escherichia coli in urinary tract pathogenesis. PNAS, 2004, 101(5), p. 1333-1338. Briefly, E. coli UT189[pCOMGFP] was prepared after retrieval from frozen stocks by inoculating appropriately in LB medium statically for approximately 20 hours. Cells were harvested and suspended in 1 ml of PBS. Cells were diluted appropriately to achieve approximately a 10^8 CFU or 10^7 CFU input into C3H/HeN mice (2 mice per group).
Mice were deprived of water for approximately two hours. In experiment 1, all mice were anesthetized with 0.15 cc ketamine cocktail. In experiment 2, all mice were anesthetized with isofluorane. In experiment 1, urine was dispelled from the bladders and approximately 40 μg/ml of test compound or an appropriate amount of ethanol as control was introduced into the bladders via catheterization of the urethra using a tubing coated tuberculin syringe. 30 minutes was allowed to elapse. In experiment 2, bladders were not pre-incubated with test compounds. Bladders were then expelled and an inoculum of 10^8 CFU (Experiment 1) or 10^7 CFU (Experiment 2) of E. coli containing 40 μg/ml of test compound or equivalent amount of ethanol as controls were introduced into the bladders as indicated above.
In experiment 1 five hours elapsed and in experiment 2 six hours elapsed, and then mice were anesthetized and sacrificed appropriately. The bladders were removed, bisected, stretched, and fixed in 3% paraformaldehyde for 1 hour at room temperature. Bladders were then permeabilized in 0.01% Triton/PBS for 10 minutes and counter stained with TOPRO3 (Molecular Probes) for 10 minutes for visualization by confocal microscopy. Bladders were mounted on Prolong antifade (Molecular Probes).

| Structure (SMILES) | biofilm inhibition against P. aeruginosa relative to corosolic acid (P. aeruginosa [1]) | growth inhibition of S. mutans (S. mutans) | growth inhibition of S. salivaris (S. salivaris) | growth inhibition of S. aureus (S. aureus) | growth inhibition of E. coli (E. coli) | growth inhibition of P. aeruginosa (P. aeruginosa [5]) | other results |
| --- | --- | --- | --- | --- | --- | --- | --- |
| C[C@@H]1[C@H]2C3=CCC4[C@@]5(C)CC[C@H](OC(=O)/C=C\c6ccc(O)cc6)C(C)(C)C5CC[C@@]4(C)[C@]3(C)CC[C@@]2(C(=O)O)CC[C@]1(C)O (stereo partly drawn) [3-[4-Hydroxycinnamoyl (cis-)], 20-hydroxy-ursolic acid] | increases biofilm inhibition | – | – | – | – | – | – |
| C[C@H]1[C@H](C)CC[C@]2(C(=O)O)CC[C@]3(C)C(=CC[C@@H]4[C@@]5(C)C[C@@H](O)[C@H](O)[C@@](C)(CO)[C@@H]5[C@H](O)C[C@]43C)[C@H]12 [Madecassic acid] | – | – | – | – | – | – | inhibition at 5 µg/mL ([2]; 5 ug/ml): ~60%; inhibition at 10 µg/mL ([2]; 10 ug/ml): ~75%; CFU, Test Compound ([3]; no tobramycin): 7.5 loglo CFU; CFU, Tobramycin and Test Compound ([3]; then tobramycin 100 μg/ml 2 h): 5.5 loglo CFU; concentration at 24 h [4]: ~30000 ng/g |
| CC1(C)CC[C@]2(C(=O)O)CC[C@]3(C)C(=CC[C@@H]4[C@@]5(C)CC[C@H](O)C(C)(C)[C@@H]5CC[C@]43C)[C@@H]2C1 [Oleanolic acid] | – | incomplete inhibition | incomplete inhibition | failed to inhibit | failed to inhibit | failed to inhibit | – |
| C[C@@H]1CC[C@]2(C(=O)O)CC[C@]3(C)C(=CC[C@@H]4[C@@]5(C)C[C@@H](O)[C@H](O)C(C)(C)[C@@H]5CC[C@]43C)[C@@H]2[C@]1(C)O [Tormentic acid] | slightly reduces the biofilm inhibition | – | – | – | – | – | – |
| C[C@@H]1CC[C@]2(C(=O)O)CC[C@]3(C)C(=CCC4[C@@]5(C)CC[C@H](O)C(C)(C)C5CC[C@]43C)C2[C@H]1C (stereo partly shown) [Ursolic acid] | – | completely inhibited | completely inhibited | failed to inhibit | failed to inhibit | failed to inhibit | reduced invasion of E. coli into bladder epithelial cells [6]: 76%; reduction in biofilm pods or IBCs in the bladders of mice (E. coli UT189[pCOMGFP]): 70% |
